Experiments:
[1] = system: MDA-MB-231; assay: Cellular proliferation assay (Alamar blue), MDA-MB-231; format: cell-based; settings: Homo sapiens, MDA-MB-231, MDA-MB-231 cells; 10% FCS; 72 h with compound; Alamar blue 24 h; read-out: pIC50 MDA/MB231 (converted)
Method in brief: (§1)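 Viable cell number is determined by Alamar blue conversion after cells are treated with compound for 72 hours, following 24 hours of growth without compound in 10% FCS. The effect is calculated against control cells.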

[2] = system: H1299; assay: Cellular proliferation assay (Alamar blue), H1299; format: cell-based; settings: Homo sapiens, NCI-H1299, H1299 cells; 10% FCS; 72 h with compound; Alamar blue 4 h; read-out: pIC50 H1299 (converted)
Method in brief: as §1

[3] = system: HCT-116; assay: Cellular proliferation assay (Alamar blue), HCT-116; format: cell-based; settings: Homo sapiens; HCT-116 cells; 10% FCS; 72 h with compound; Alamar blue 4 h; read-out: pIC50 HCT-116 (converted)
Method in brief: (§2)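 Cells seeded 24 h, then exposed to compounds for 72 h in 10% FCS at 37° C, 5% CO2. Viability by Alamar blue (resazurin 9 μg/ml) fluorescence at 544/590 nm after 4 h (HCT-116), 6 h (U87-MG) or 24 h (A2780, PC3) dye incubation; effect expressed relative to control cells.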

[4] = system: U87-MG; assay: Cellular proliferation assay (Alamar blue), U87-MG; format: cell-based; settings: Homo sapiens, U-87 MG; U87-MG cells; 10% FCS; 72 h with compound; Alamar blue 6 h; read-out: pIC50 U87MG (converted)
Method: Cellular proliferation of these compounds was tested on a panel of different cell lines in the presence of 10% FCS serum (37° C. and 5% (v/v) CO2). In a first step these cells were seeded and incubated for 24 hours in the absence of compound. In the second step the cells were incubated for 72 hours with the compounds to be tested for 72 hours. The viable cell number was finally assessed in a standard Alamar blue cell viability assay.
The viable cell number was assessed by incubation for either 4 h (HCT-116, H1299) 6 h (U87-MG) or 24 h (A2780, PC3, MDA-MB-231) with Alamar blue (Resazurin 9 μg/ml, K-Ferrocyanide 90 μM, K-Ferricyanide 90 μM) and the converted fluorescent product was quantified on a fluorescent plate readed (544 nm/590 nm). Effect of the compounds is calculated as of on control cells.

[5] = system: PC3; assay: Cellular proliferation assay (Alamar blue), PC3; format: cell-based; settings: Homo sapiens, PC-3, PC-3 cells; 10% FCS; 72 h with compound; Alamar blue 24 h; read-out: pIC50 PC-3 (converted)
Method in brief: as §2

[6] = molecular target: T1, PLK4 (h) (Homo sapiens, UniProt O00444); assay: PLK-4 human kinase scintillation proximity assay (SPA); format: biochemical; settings: 1 μM ATP, 60 minutes at r.t., read-out: PLK4 pIC50 (converted)
T1 sequence (O00444 1-970): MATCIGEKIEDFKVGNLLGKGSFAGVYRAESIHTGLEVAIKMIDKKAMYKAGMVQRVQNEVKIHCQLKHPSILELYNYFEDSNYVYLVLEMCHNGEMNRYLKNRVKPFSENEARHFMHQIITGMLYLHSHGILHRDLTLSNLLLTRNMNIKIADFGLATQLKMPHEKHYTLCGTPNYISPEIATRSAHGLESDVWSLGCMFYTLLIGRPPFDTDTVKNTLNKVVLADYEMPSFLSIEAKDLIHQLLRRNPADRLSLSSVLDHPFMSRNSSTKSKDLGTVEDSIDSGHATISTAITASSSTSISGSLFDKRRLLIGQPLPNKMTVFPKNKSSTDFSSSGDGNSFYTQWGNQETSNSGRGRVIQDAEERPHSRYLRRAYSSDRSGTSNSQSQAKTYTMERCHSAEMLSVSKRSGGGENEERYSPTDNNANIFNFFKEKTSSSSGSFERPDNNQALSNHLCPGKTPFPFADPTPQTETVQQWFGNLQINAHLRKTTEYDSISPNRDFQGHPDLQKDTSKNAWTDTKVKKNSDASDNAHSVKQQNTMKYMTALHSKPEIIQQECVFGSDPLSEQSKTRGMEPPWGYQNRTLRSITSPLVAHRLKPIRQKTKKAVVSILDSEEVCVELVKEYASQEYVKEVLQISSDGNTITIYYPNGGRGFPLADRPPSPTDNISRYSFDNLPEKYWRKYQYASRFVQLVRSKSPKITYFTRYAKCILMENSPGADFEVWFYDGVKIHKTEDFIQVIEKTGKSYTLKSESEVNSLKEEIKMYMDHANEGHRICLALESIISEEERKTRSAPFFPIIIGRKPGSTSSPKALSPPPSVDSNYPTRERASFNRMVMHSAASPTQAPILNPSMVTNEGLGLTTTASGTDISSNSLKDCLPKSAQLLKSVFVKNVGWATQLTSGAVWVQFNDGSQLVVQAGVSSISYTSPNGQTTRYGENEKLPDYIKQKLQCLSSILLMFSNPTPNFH
Method in brief: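 Human PLK4 (19 μg/ml) reacted with 10 μM biotinylated peptide, 1 μM ATP plus 2 nM [γ-33P]ATP in HEPES pH 8.0 with MgCl2, NaCl, NaF and DTT for 60 min at r.t. After an EDTA stop, phosphorylated substrate was captured on streptavidin PVT SPA beads and scintillation imaged.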

[7] = system: A2780; assay: Cellular proliferation assay (Alamar blue), A2780; format: cell-based; settings: Homo sapiens, A2780, A2780 cells; 10% FCS; 72 h with compound; Alamar blue 24 h; read-out: pIC50 A2780 (converted)
Method in brief: as §2

SMILES | IC50 [1] | IC50 [2] | IC50 [3] | IC50 [4] | IC50 [5] | IC50 [6] | IC50 [7]
COc1ccc2cc1OCC(=O)N1CCC[C@@H]1CN(C)CCCc1c[nH]c3ncnc(c13)N2 [Compound 38] | > 10 µM | > 10 µM | > 10 µM | > 10 µM | > 10 µM | > 10 µM | > 10 µM
CC(C)NC(=O)Nc1ccc2cc1OCC(=O)N(C)CCCN(C)Cc1c[nH]c3ncnc(c13)N2 [Compound 122] | > 10 µM | 7.94 µM | 6.31 µM | > 10 µM | > 10 µM | 0.2 µM | 3.98 µM
COc1ccc2cc1OCC(=O)NCN(C)CCCc1c[nH]c3ncnc(c13)N2 [Compound 33] | > 10 µM | > 10 µM | > 10 µM | > 10 µM | > 10 µM | 5.01 µM | > 10 µM
CN1CCN(C)C(=O)CCCOc2cccc(c2)Nc2ncnc3[nH]cc(c23)C1 [Compound 31] | > 10 µM | > 10 µM | 6.31 µM | > 10 µM | > 10 µM | 0.794 µM | 3.98 µM
CN1CCCN(C)C(=O)CCCCCOc2cc(ccc2Cl)Nc2ncnc3[nH]cc(c23)C1 [Compound 19] | > 10 µM | > 10 µM | > 10 µM | > 10 µM | > 10 µM | 0.316 µM | > 10 µM
COc1cc2cc(c1OC)OCCCC(=O)N1CCN(CC1)Cc1c[nH]c3ncnc(c13)N2 [Compound 112] | > 10 µM | > 10 µM | > 10 µM | > 10 µM | > 10 µM | > 10 µM | > 10 µM
COc1ccc2cc1OCC(=O)NCC1CN(Cc3c[nH]c4ncnc(c34)N2)C1 [Compound 88] | > 10 µM | > 10 µM | 5.01 µM | 10 µM | > 10 µM | 0.501 µM | > 10 µM
COc1ccc2cc1OCC(=O)N1CCCC(CN(C)CCCc3c[nH]c4ncnc(c34)N2)C1 (centres unmarked) [Compound 29] | > 10 µM | > 10 µM | > 10 µM | > 10 µM | > 10 µM | > 10 µM | > 10 µM
CN1CCCN(C)C(=O)COc2cc(ccc2OCCN2CCCCC2)Nc2ncnc3[nH]cc(c23)C1 [Compound 136] | 3.16 µM | 5.01 µM | 2.51 µM | 1.58 µM | 2.51 µM | 0.251 µM | 1 µM
CN1CCCN(C)C(=O)COc2cccc(c2)Nc2ncnc3[nH]cc(c23)C1 [Compound 120] | 1 µM | 1 µM | 0.398 µM | 0.794 µM | 1 µM | 0.0316 µM | 0.501 µM
COc1ccc2cc1OCCCC(=O)N1CCN(CC1)Cc1c[nH]c3ncnc(c13)N2 [Compound 105] | > 10 µM | > 10 µM | > 10 µM | > 10 µM | > 10 µM | 1 µM | > 10 µM
COc1ccc2cc1OCC(=O)N1CCC[C@H]1CN(C)CCCc1c[nH]c3ncnc(c13)N2 [Compound 27] | > 10 µM | > 10 µM | > 10 µM | > 10 µM | > 10 µM | 6.31 µM | > 10 µM
O=C1CCCOc2cccc(c2)Nc2ncnc3[nH]cc(c23)CN2CCN1CC2 [Compound 107] | > 10 µM | > 10 µM | > 10 µM | > 10 µM | > 10 µM | 6.31 µM | > 10 µM
O=C1CCCCOc2cc(ccc2N2CCOCC2)Nc2ncnc3[nH]cc(c23)CN2CCN1CC2 [Compound 121] | > 10 µM | > 10 µM | > 10 µM | > 10 µM | > 10 µM | 6.31 µM | > 10 µM
CN1CCN(c2ccc3cc2OCC(=O)N(C)CCCN(C)Cc2c[nH]c4ncnc(c24)N3)CC1 [Compound 84] | 3.98 µM | 3.16 µM | 1 µM | 1.26 µM | 2.51 µM | 0.2 µM | 0.501 µM
CN1CCN(C)C(=O)CCCOc2cc(ccc2N2CCOCC2)Nc2ncnc3[nH]cc(c23)C1 [Compound 40] | > 10 µM | > 10 µM | > 10 µM | > 10 µM | > 10 µM | 1.26 µM | > 10 µM
COc1ccc2cc1CCC(=O)N(C)CCN(C)Cc1c[nH]c3ncnc(c13)N2 [Compound 46] | > 10 µM | > 10 µM | > 10 µM | > 10 µM | > 10 µM | 1 µM | > 10 µM
CN1CCCN(C)C(=O)COc2cc(ccc2NC(=O)NCC2CC2)Nc2ncnc3[nH]cc(c23)C1 [Compound 127] | > 10 µM | > 10 µM | > 10 µM | > 10 µM | > 10 µM | 0.0501 µM | 5.01 µM
COc1ccc(NC(=O)COc2ccc3cc2OCC(=O)N(C)CCCN(C)Cc2c[nH]c4ncnc(c24)N3)cc1 [Compound 129] | 1.26 µM | 0.2 µM | 0.0794 µM | 0.794 µM | 1 µM | 0.0501 µM | 0.0631 µM
CN1CCCN(C)C(=O)COc2cc(ccc2Cl)Nc2ncnc3[nH]cc(c23)C1 [Compound 14] | > 10 µM | > 10 µM | 0.631 µM | 0.794 µM | > 10 µM | 0.0501 µM | 3.98 µM
CN1CCCN(C)C(=O)COc2cc(ccc2N2CCOCC2)Nc2ncnc3[nH]cc(c23)C1 [Compound 85] | 7.94 µM | 2 µM | 2 µM | 2 µM | 5.01 µM | 0.158 µM | 1.58 µM
CN1CCCN(C)C(=O)CCCOc2cc(ccc2N2CCOCC2)Nc2ncnc3[nH]cc(c23)C1 [Compound 44] | > 10 µM | > 10 µM | > 10 µM | > 10 µM | > 10 µM | 1.58 µM | > 10 µM
CN1CCCN(C)C(=O)Cc2cccc(c2)Nc2ncnc3[nH]cc(c23)C1 [Compound 24] | > 10 µM | > 10 µM | 3.98 µM | 10 µM | 10 µM | 0.398 µM | 5.01 µM

— patent publication US8318731B2, “Pyrrolopyrimidines” (Janssen Pharmaceutica NV, priority 2007, dated 2012)
